This is an account of results in patent US20050080113A1, “Medicinal compositions” (priority 2001, published 2005).

By melting point is commonly meant the temperature, or range, at which the solid turns liquid.

Chain of CYP3A4 (P08684 whole entry): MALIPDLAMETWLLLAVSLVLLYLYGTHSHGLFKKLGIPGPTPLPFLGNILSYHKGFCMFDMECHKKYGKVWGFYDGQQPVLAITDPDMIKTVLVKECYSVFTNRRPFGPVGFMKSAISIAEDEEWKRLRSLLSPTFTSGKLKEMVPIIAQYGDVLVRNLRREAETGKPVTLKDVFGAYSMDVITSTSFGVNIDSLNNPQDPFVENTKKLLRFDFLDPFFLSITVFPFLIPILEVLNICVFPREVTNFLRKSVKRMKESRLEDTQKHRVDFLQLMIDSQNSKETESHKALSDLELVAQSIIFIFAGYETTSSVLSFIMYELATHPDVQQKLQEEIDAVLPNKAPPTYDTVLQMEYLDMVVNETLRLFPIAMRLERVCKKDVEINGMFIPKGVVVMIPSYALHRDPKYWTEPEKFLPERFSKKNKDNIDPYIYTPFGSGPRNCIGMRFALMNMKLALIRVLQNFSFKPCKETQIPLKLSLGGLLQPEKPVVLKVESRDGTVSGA

The first data set deals with CYP3A4 (Homo sapiens, UniProt P08684). The experiment in a line: Measurement of CYP3A4 inhibitory activity (testosterone 6β-hydroxylation), Example 3. The format is in vitro ADME. The following applies: CYP3A4 enzyme preparation with control microsomes, pH 7.4, probe testosterone (100 μM; 6β-hydroxylation), CYP3A4, test substance 10 μM, 100 μM testosterone, 37° C. 30 min, read-out: inhibitory rate (%) at 10 μM. The method, then:
10 pmol/mL CYP3A4, 100 μM testosterone, 1/10 volume of the reaction mixture of NADPH generating system and test substance (10 μM) were added to a 50 mM phosphate buffer (pH 7.4) and control microsome was added to adjust the final concentration of protein to 1.0 mg/mL. The reaction mixture was prepared and reacted at 37° C. for 30 min. (amount of total reaction solution 100 μL). The reaction was quenched by the addition of 100 μL of acetonitrile. After stirring, 100 μL of distilled water was added and the mixture was further stirred. A supernatant obtained by centrifugation (15000 rpm) for 10 min. was injected to HPLC by 80 μL and concentration of 6 β-hydroxytestosterone produced by the reaction was measured.
For preparation of the NADPH generating system, 1 volume of 50 mM NADP (β-nicotinamide adenine dinucleotide oxidized type), 1 volume of 0.5 M glucose-6 phosphate, 5 volumes of 0.1 M magnesium chloride, 1 volume of 150 unit/mL glucose-6-phosphate […] and 2 volumes of distilled water were mixed.
Consider `CCc1nc(-c2cccc(C)c2)c(-c2ccnc(NCCCc3ccccc3)c2)s1` [D 19-4, N-[4-[2-ethyl-4-(3-methylphenyl)-1,3-thiazol-5-yl]-2-pyridyl]-N-(3-phenylpropyl)amine], for which the inhibition at 30 min, 10 μM was under 30%.
On the same count and under the same terms, under `CCc1nc(-c2cccc(C)c2)c(-c2ccnc(F)c2)s1` [H 11, 2-ethyl-5-(2-fluoro-4-pyridyl)-4-(3-methylphenyl)-1,3-thiazole] stands under 30%; under `CCc1nc(-c2cccc(C)c2)c(-c2ccnc(C)c2)s1` [H 13, 2 ethyl-4 (3 methylphenyl)-5 (2 methyl-4 pyridyl)-1,3 thiazole], under 30%.
Turning to `CCc1nc(-c2cccc(C)c2)c(-c2ccnc(N)c2)s1` [H 22, 4-[2-ethyl-4-(3-methylphenyl)-1,3-thiazol-5-yl]-2-pyridylamine], the inhibition at 30 min, 10 μM is under 30%.
Still for that read-out and setting: under `CCc1nc(-c2cccc(C)c2)c(-c2ccnc(NC(C)=O)c2)s1` [H 29-2, N-[4-[2-ethyl-4-(3-methylphenyl)-1,3-thiazol-5-yl]-2-pyridyl]acetamide] stands under 30%; under `CCc1nc(-c2cccc(C)c2)c(-c2ccnc(Cl)c2)s1` [H 69, 5 (2 chloro-4 pyridyl)-2 ethyl-4 (3 methylphenyl)-1,3-thiazole], under 30%.

Tested on in a further data set: not given
Assay: not given
Conditions: not given
Compound `Cc1cc(C)cc(-c2nc(NC(=O)c3ccncc3)sc2-c2ccncc2)c1` [Reference Example A 23-200, N-[4-(3,5-dimethylphenyl)-5-(4-pyridyl)-1,3-thiazol-2-yl]isonicotinamide] displayed a melting point of 302 to 304 °C.
